pIC50: −log10 of the molar value. Where a name gives a salt, the structure may show the parent alone.
Tested on: HCT116
Experiment: Inhibition of cell proliferation, HCT116
Format: cell-based
Conditions: Homo sapiens, HCT-116; 72 h treatment; methylene blue or CellTiter-Glo
Protocol: II. Inhibition of Cell Proliferation by PLK1 Inhibitors.
Exponentially growing cell lines of different tumor origins, cultured in appropriate media containing 10% fetal bovine serum at 37° C. in a 5% CO2 incubator were plated in 96 or 384-well plates. Twenty four hours post-plating, cells were treated with different concentrations of test compounds ranging from 20 μM to 0.04 nM. Several wells were left untreated as a control. Seventy two hours post-treatment, cell numbers were determined using different techniques; 100 μl per well of methylene blue (Sigma M9140) (0.5% in 50:50 Ethanol:water), or 10-100 μl per well of CellTiter-Glo (Promega #G7573), depending on well size. For methylene blue staining, stain was incubated at room temperature for 30 minutes before plates were rinsed and dye solubilized in 1% N-lauroyl sarcosine, sodium salt, (Sigma L5125, in PBS). Plates were read on a microplate reader, measuring the OD at 620 nm. For CellTiter-Glo, plates were incubated at room temperature for 15 minutes and the chemiluminescent signal was read on the Victor V or Envison 2100 reader.
Percent inhibition of cell growth was expressed as percent proliferation relative to 100% proliferation (control). Concentration of test compound that inhibited 50% of cell growth (IC50) was determined by 4 parameter fit of data using XLfit, (value of no cell control was substracted from all samples for background). The data are shown in Table 1 and Table 2 below and represent a compilation of several different experiments each performed using the general parameters outlined above, although minor variations may have been employed in some instances, in Table 1 and Table 2, +=IC50>1 μM; ++=IC50 0.5-1 μM: +++=IC50<0.5 μM.

| Compound | pIC50 |
| --- | --- |
| C[C@@H](Oc1cc(-n2cnc3ccccc32)sc1C(N)=O)c1cccc(OCCN2CCNCC2)c1Cl [Example 16, 5-(1H-benzimidazol-1-yl)-3-{[(1R)-1-(2-chloro-3-{[2-(1-piperazinyl)ethyl]oxy}phenyl)ethyl]oxy}-2-thiophenecarboxamide] | > 6.30 |
| COc1cc2ncn(-c3cc(O[C@H](C)c4cccc(OCC5CCNCC5)c4Cl)c(C(N)=O)s3)c2cc1OC [Example 40, 5-[5,6-Bis(methyloxy)-1H-benzimidazol-1-yl]-3-[((1R)-1-{2-chloro-3-[(4-piperidinylmethyl)oxy]phenyl}ethyl)oxy]-2-thiophenecarboxamide] | > 6.30 |
| C[C@@H](Oc1cc(-n2cnc3cc(-c4cc[n+]([O-])cc4)ccc32)sc1C(N)=O)c1cccc(OC2CCNCC2)c1Cl [Example 37, 3-({(1R)-1-1-[2-Chloro-3-(4-piperidinyloxy)phenyl]ethyl}oxy)-5-[5-(1-oxido-4-pyridinyl)-1H-benzimidazol-1-yl]-2-thiophenecarboxamide] | < 6.00 |
| COc1cc2ncn(-c3cc(O[C@H](C)c4cccc(NCC5CCNCC5)c4Cl)c(C(N)=O)s3)c2cc1OC [Example 1] | 6.00 to 6.30 |
| CCN1CCC(Oc2cccc([C@@H](C)Oc3cc(-n4cnc5cc(Cl)ccc54)sc3C(N)=O)c2Cl)CC1 [Example 19, 5-(5-Chloro-1H-benzimidazol-1-yl)-3-[((1R)-1-{2-chloro-3-[(1-ethyl-4-piperidinyl)oxy]phenyl}ethyl)oxy]-2-thiophenecarboxamide] | > 6.30 |
| C[C@@H](Oc1cc(-n2cnc3ccccc32)sc1C(N)=O)c1cccc(OC2CCNCC2)c1Cl [Example 14, 5-(1H-Benzimidazol-1-yl)-3-({(1R)-1-[2-chloro-3-(4-piperidinyloxy)phenyl]ethyl}oxy)-2-thiophenecarboxamide] | > 6.30 |
| C[C@@H](Oc1cc(-n2cnc3cc(Cl)ccc32)sc1C(N)=O)c1cccc(OC[C@@H]2CNCCO2)c1Cl [Example 28, 5-(5-Chloro-1H-benzimidazol-1-yl)-3-{[(1R)-1-(2-chloro-3-{[(2S)-2-morpholinomethyl]oxy}phenyl)ethyl]oxy}-2-thiophenecarboxamide] | > 6.30 |
| C[C@@H](Oc1cc(-n2cnc3ccc(C#N)cc32)sc1C(N)=O)c1cccc(OC2CCN(C)CC2)c1Cl [Example 4, 3-((1R)-1-{2-chloro-3-[(1-methylpiperidin-4-yl)oxy]phenyl}-ethoxy)-5-(6-cyano-1H-benzimidazol-1-yl)thiophene-2-carboxamide] | > 6.30 |
| C[C@@H](Oc1cc(-n2cnc3cc(-c4cnn(C)c4)ccc32)sc1C(N)=O)c1ccc(F)c(OC2CCN(C)CC2)c1Cl [Example 34, 3-[((1R)-1-{2-Chloro-4-fluoro-3-[(1-methyl-4-piperidinyl)oxy]phenyl}ethyl)oxy]-5-[5-(1-methyl-1H-pyrazol-4-yl)-1H-benzimidazol-1-yl]-2-thiophenecarboxamide trifluoroacetate] | > 6.30 |
| C[C@@H](Oc1cc(-n2cnc3cc(-c4cnn(C)c4)ccc32)sc1C(N)=O)c1cccc(OCCN2CCOCC2)c1Cl [Example 25, 3-{[(1R)-1-(2-chloro-3-{[2-(4-morpholinyl)ethyl]oxy}phenyl)ethyl]oxy}-5-[5-(1-methyl-1H-pyrazol-4yl)-1H-benzimidazol-1-yl]-2-thiophenecarboxamide] | > 6.30 |
| C[C@@H](Oc1cc(-n2cnc3cc(-c4cnn(C)c4)ccc32)sc1C(N)=O)c1ccc(F)c(OC2CCN(CCS(C)(=O)=O)CC2)c1Cl [Example 36, 3-({(1R)-1-[2-Chloro-4-fluoro-3-({1-[2-(methylsulfonyl)ethyl]-4-piperidinyl}oxy)phenyl]ethyl}oxy)-5-[5-(1-methyl-1H-pyrazol-4-yl)-1H-benzimidazol-1-yl]-2-thiophenecarboxamide] | > 6.30 |
| C[C@@H](Oc1cc(-n2cnc3cc(Cl)ccc32)sc1C(N)=O)c1ccc(F)c(OC2CCN(C)CC2)c1Cl [Example 32, 5-(5-Chloro-1H-benzimidazol-1yl)-3-[((1R)-1-{2-chloro-4-fluoro-3-[(1-methyl-4-piperidinyl)oxy]phenyl}ethyl)oxy]-2-thiophenecarboxamide] | > 6.30 |
| C[C@@H](Oc1cc(-n2cnc3cc(-c4cnn(C)c4)ccc32)sc1C(N)=O)c1ccc(F)c(OC2CCNCC2)c1Cl [Example 33, 3-({(1R)-1-[2-Chloro-4-fluoro-3-(4-piperidinyloxy)phenyl]ethyl}oxy)-5-[5-(1-methyl-1H-pyrazol-4-yl)-1H-benzimidazol-1-yl]-2-thiophenecarboxamide] | > 6.30 |
| Cc1ccc(-c2ccc3c(c2)ncn3-c2cc(O[C@H](C)c3cccc(OC4CCN(C)CC4)c3Cl)c(C(N)=O)s2)cn1 [Example 10, 3-[((1R)-1-[2-chloro-3-[(1-methyl-4-piperidinyl)oxy]phenyl}ethyl)oxy]-5-[5-(6-methyl-3-pyridinyl)-1H-benzimidazol-1-yl]-2-thiophenecarboxamide] | > 6.30 |
| C[C@@H](Oc1cc(-n2cnc3cc(-c4cccnc4)ccc32)sc1C(N)=O)c1cccc(OC2CCNCC2)c1Cl [Example 12, 3-({(1R)-1-[2-chloro-3-(4-piperidinyloxy)phenyl]ethyl}oxy)-5-[5-(3-pyridinyl)-1H-benzimidazol-1-yl]-2-thiophenecarboxamide] | > 6.30 |
| COc1cc2ncn(-c3cc(O[C@H](C)c4cccc(OCC5CCN(C(=O)OC(C)(C)C)CC5)c4Cl)c(C(N)=O)s3)c2cc1OC [Example 39, 1,1-Dimethylethyl 4-[({3-[(1R)-1-({2-(aminocarbonyl)-5-[5,6-bis(methyloxy)-1H-benzimidazol-1-yl]-3-thienyl}oxy)ethyl]-2-chlorophenyl}oxy)methyl]-1-piperidinecarboxylate] | 6.00 to 6.30 |

Other lines, results leading:

| pIC50 | Compound |
| --- | --- |
| > 6.30 | C[C@@H](Oc1cc(-n2cnc3ccc(OC(F)(F)F)cc32)sc1C(N)=O)c1cccc(OC2CCNCC2)c1Cl [Example 63, 3-({(1R)-1-[2-chloro-3-(4-piperidinyloxy)phenyl]ethyl}oxy)-5-[6-[(trifluoromethyl)oxy]-1H-1-benzimidazol-1-yl}-2-thiophenecarboxamide] |
| > 6.30 | C[C@@H](Oc1cc(-n2cnc3cc(Cl)c(F)cc32)sc1C(N)=O)c1cccc(OC2CCNCC2)c1Cl [Example 67] |
| < 6.00 | CC(Oc1cc(-n2cnc3cc(-c4cnn(C)c4)ccc32)sc1C(N)=O)c1ccnc(OC2CCNCC2)n1 (racemic) [Example 77, (±)-5-[5-(1-Methyl-1H-pyrazol-4-yl)-1H-benzimidazol-1-yl]-3-({1-[2-(4-piperidinyloxy-4-pyrimidinyl]ethyl}oxy)-2-thiophenecarboxamide] |
| < 6.00 | C[C@@H](Oc1cc(-n2cnc3cc(-c4cnn(C)c4)ccc32)sc1C(N)=O)c1cccc(OCC2CCN(C(=O)OC(C)(C)C)CC2)c1Cl [Example 43, 1,1-Dimethylethyl 4-[({3-[(1R)-1-({2-(aminocarbonyl)-5-[5-(1-methyl-1H-pyrazol-4-yl)-1H-benzimidazol-1-yl]-3-thienyl}oxy)ethyl]-2-chlorophenyl}oxy)methyl]-1-piperidinecarboxylate] |
| < 6.00 | CC(Oc1cc(-n2cnc3cc(-c4cnn(C)c4)ccc32)sc1C(N)=O)c1ccnc(OC2CCN(C)CC2)n1 (racemic) [Example 78, (±)-3-[(1-(2-[(1-methyl-4-piperidinyl)oxy]-4-pyrimidinyl}ethyl)oxy]-5-[5-(1-methyl-1H-pyrazol-4-yl)-1H-benzimidazol-1-yl]-2-thiophenecarboxamide] |
| < 6.00 | CC(Oc1cc(-n2cnc3cc(-c4cnn(C)c4)ccc32)sc1C(N)=O)c1cccc(OC2CCN(C)CC2)n1 (racemic) [Example 82, (±)-3-[(1-{6-[(1-Methyl-4-piperidinyl)oxy]-2-pyridinyl)ethyl)oxy]-5-[5-(1-methyl-1H-pyrazol-4-yl)-1H-benzimidazol-1-yl]-2-thiophenecarboxamide] |
| > 6.30 | CC(Oc1cc(-n2cnc3cc(-c4cnn(C)c4)ccc32)sc1C(N)=O)c1cccc(OC2CCN(C)CC2)c1F (racemic) [Example 76, (±)-3-[(1-{2-Fluoro-3-[(1-methyl-4-piperidinyl)oxy]phenyl}ethyl)oxy]-5-[5-(1-methyl-1H-pyrazol-4-yl)-1H-benzimidazol-1-yl]-2-thiophenecarboxamide] |
| > 6.30 | C[C@@H](Oc1cc(-n2cnc3cc(Br)ccc32)sc1C(N)=O)c1cccc(OC2CCN(C)CC2)c1Cl [Example 51, 5-(5-Bromo-1H-benzimidazol-1-yl)-3-[((1R)-1-{2-chloro-3-[(1-methyl-4-piperidinyl)oxy]phenyl}ethyl)oxy]-2-thiophenecarboxamide] |
| > 6.30 | COc1cc2ncn(-c3cc(O[C@H](C)c4cccc(OCCN5CCN(C)CC5)c4Cl)c(C(N)=O)s3)c2cc1OC [Example 42, 5-[5,6-Bis(methyloxy)-1H-benzimidazol-1-yl]-3-{[(1R)-1-(2-chloro-3-{[2-(4-methyl-1-piperazinyl)ethyl]oxy}phenyl)ethyl]oxy}-2-thiophenecarboxamide] |
| < 6.00 | CC(Oc1cc(-n2cnc3cc(-c4cnn(C)c4)ccc32)sc1C(N)=O)c1ccnc(OC2CCNCC2)c1 (racemic) [Example 79, (±)-5-[5-(1-Methyl-1H-pyrazol-4-yl)-1H-benzimidazol-1-yl]-3-({1-[2-(4-piperidinyloxy)-4-pyridinyl]ethyl}oxy)-2-thiophenecarboxamide] |
